Test results as given in patent US10131652B2, “Pyrimidinyloxy benzene derivatives as herbicides” (E. I. DU PONT DE NEMOURS AND COMPANY, priority 2014, dated 2018).

Tests used:
Type in all cases: in vivo
[1] = tested on: wheat (Triticum aestivum); assay: Test B pre-/postemergence plant response
In short: (§1)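 Greenhouse pots, loam/sand soil; compound formulated with surfactant in non-phytotoxic solvent. Preemergence soil spray and postemergence spray at 1–2 leaf stage run simultaneously. Visual injury, 0–100, about 10 days post-treatment.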

[2] = tested on: barnyardgrass (Echinochloa crus-galli); assay: Test B pre-/postemergence plant response
In short: as §1

[3] = tested on: Italian ryegrass (Lolium multiflorum); assay: Test B pre-/postemergence plant response
In short: as §1

[4] = tested on: ragweed (common ragweed, Ambrosia elatior); assay: Test B pre-/postemergence plant response
In short: as §1

kochia (Kochia scoparia) [5] = assay: Test B pre-/postemergence plant response
In short: as §1

[6] = tested on: giant foxtail (Setaria faberii); assay: Test B pre-/postemergence plant response
In short: as §1

[7] = tested on: pigweed (Amaranthus retroflexus); assay: Test B pre-/postemergence plant response
In short: as §1

corn (Zea mays) = assay: Test B pre-/postemergence plant response
In short: as §1

wild oat (Avena fatua) = assay: Test D postemergence plant response; details: for Oat, Wild plant response rating: scale 0 to 100 (0 no effect, 100 complete control); for Plant response rating, Oat, Wild: scale 0 to 100, 0 no effect, 100 complete control
In short: (§2)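 Plants grown in pots of peat moss–vermiculite medium with wetting agent and starter nutrients received postemergence applications of the formulated test chemicals at 2 to 18 cm height (1- to 4-leaf stage). After 13 to 15 days in a greenhouse, injury was scored visually against untreated controls, 0 (no effect) to 100 (complete control).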

kochia (Kochia scoparia) [8] = assay: Test D postemergence plant response; details: for Kochia plant response rating: scale 0 to 100 (0 no effect, 100 complete control); for Plant response rating, Kochia: scale 0 to 100, 0 no effect, 100 complete control
In short: as §2

[9] = tested on: chickweed (common chickweed, Stellaria media); assay: Test D postemergence plant response; details: for Chickweed plant response rating: scale 0 to 100 (0 no effect, 100 complete control); for Plant response rating, Chickweed: scale 0 to 100, 0 no effect, 100 complete control
In short: as §2

[10] = tested on: blackgrass (Alopecurus myosuroides); assay: Test B postemergence plant response
In short: (§3)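 Injury was assessed visually about 10 days after treatment, scored from 0 (no effect) to 100 (complete control) by comparison with untreated controls. Test chemicals had been applied postemergence to potted plants at the one- to two-leaf stage, grown in loam soil and sand in a greenhouse.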

[11] = tested on: galium (catchweed bedstraw, Galium aparine); assay: Test B postemergence plant response
In short: as §3

[12] = tested on: barnyardgrass (Echinochloa crus-galli); assay: Test C flooded paddy test plant response; details: Flood, 250 g ai/ha; scale of 0 to 100 where 0 is no effect and 100 is complete control; 13 to 15 days
In short: (§4)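 Scored visually on a 0–100 scale (100 = complete control) against untreated plants 13 to 15 days after treatment in the greenhouse. Compounds went into paddy water of pots flooded to 3 cm, holding 2-leaf-stage plants.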

[13] = tested on: small-flower umbrella sedge (Cyperus difformis); assay: Test C flooded paddy test plant response; details: Flood, 250 g ai/ha; scale of 0 to 100 where 0 is no effect and 100 is complete control; 13 to 15 days
In short: as §4

[14] = tested on: ducksalad (Heteranthera limosa); assay: Test C flooded paddy test plant response; details: Flood, 250 g ai/ha; scale of 0 to 100 where 0 is no effect and 100 is complete control; 13 to 15 days
In short: as §4

rice (Oryza sativa) = assay: Test C flooded paddy test plant response; details: Flood, 250 g ai/ha; scale of 0 to 100 where 0 is no effect and 100 is complete control; 13 to 15 days
In short: as §4

[15] = 125 g ai/ha, postemergence, 0 to 100 scale, 0 no effect, 100 complete control
[16] = Postemergence, 500 g ai/ha, 0 to 100 scale (0 no effect, 100 complete control)
[17] = Preemergence, 125 g ai/ha, 0 to 100 scale where 0 is no effect and 100 is complete control
[18] = Preemergence, 500 g ai/ha, 0 to 100 scale where 0 is no effect and 100 is complete control
[19] = 31 g ai/ha, Postemergence, 0 to 100 scale, 0 no effect, 100 complete control
[20] = Preemergence, 31 g ai/ha, 0 to 100 scale (0 no effect, 100 complete control)

Cc1cc(-c2ccccc2Oc2ncc(Cl)cn2)no1 [Compound 60]
20: Plant response rating, Ragweed [4, 17] | Barnyardgrass plant response rating [12]
90: Plant response rating, Wheat [1, 16] | Plant response rating, Ragweed [4, 16] | Plant response rating, Kochia (kochia (Kochia scoparia) [5]; [15]) | Plant response rating, Kochia (kochia (Kochia scoparia) [5]; [17]) | Plant response rating, Corn (corn (Zea mays); [16]) | Plant response rating, Kochia (kochia (Kochia scoparia) [8]; 125 g ai/ha)
60: Plant response rating, Ragweed [4, 15] | Plant response rating, Chickweed ([9]; 62 g ai/ha)
80: Plant response rating, Barnyardgrass [2, 17] | Plant response rating, Ryegrass, Italian [3, 16] | Plant response rating, Foxtail, Giant [6, 17] | Ducksalad plant response rating [14]
100: Plant response rating, Barnyardgrass [2, 16] | Plant response rating, Barnyardgrass [2, 18] | Plant response rating, Kochia (kochia (Kochia scoparia) [5]; [16]) | Plant response rating, Kochia (kochia (Kochia scoparia) [5]; [18]) | Plant response rating, Foxtail, Giant [6, 16] | Plant response rating, Foxtail, Giant [6, 18] | Plant response rating, Pigweed [7, 15] | Plant response rating, Pigweed [7, 16] | Plant response rating, Pigweed [7, 17] | Plant response rating, Pigweed [7, 18] | Plant response rating, Blackgrass [10, 16] | Plant response rating, Galium [11, 15] | Plant response rating, Galium [11, 16]
5: Oat, Wild plant response rating (wild oat (Avena fatua); 16 g ai/ha) | Plant response rating, Oat, Wild (wild oat (Avena fatua); 125 g ai/ha)
50: Plant response rating, Barnyardgrass [2, 15] | Plant response rating, Ragweed [4, 18] | Plant response rating, Foxtail, Giant [6, 15] | Kochia plant response rating (kochia (Kochia scoparia) [8]; 16 g ai/ha) | Kochia plant response rating (kochia (Kochia scoparia) [8]; 31 g ai/ha) | Chickweed plant response rating ([9]; 31 g ai/ha) | Plant response rating, Blackgrass [10, 15] | Sedge, Umbrella plant response rating [13]
55: Plant response rating, Kochia (kochia (Kochia scoparia) [8]; 62 g ai/ha)
45: Chickweed plant response rating ([9]; 16 g ai/ha)
75: Plant response rating, Chickweed ([9]; 125 g ai/ha)
0: Plant response rating, Ryegrass, Italian [3, 15] | Plant response rating, Ryegrass, Italian [3, 17] | Oat, Wild plant response rating (wild oat (Avena fatua); 31 g ai/ha) | Plant response rating, Oat, Wild (wild oat (Avena fatua); 62 g ai/ha)
30: Plant response rating, Wheat [1, 15] | Plant response rating, Ryegrass, Italian [3, 18] | Plant response rating, Corn (corn (Zea mays); [15]) | Rice plant response rating (rice (Oryza sativa))

Fc1ccc(Oc2ncc(Cl)cn2)c(-c2cc(C(F)F)on2)c1Cl [Compound 96]
10: Plant response rating, Barnyardgrass [2, 19] | Foxtail, Giant plant response rating [6, 20] | Plant response rating, Blackgrass [10, 19]
90: Pigweed plant response rating [7, 20] | Plant response rating, Chickweed ([9]; 62 g ai/ha) | Ducksalad plant response rating [14]
70: Plant response rating, Kochia (kochia (Kochia scoparia) [5]; [19]) | Plant response rating, Kochia (kochia (Kochia scoparia) [5]; [17]) | Plant response rating, Blackgrass [10, 15]
50: Plant response rating, Ragweed [4, 19] | Kochia plant response rating (kochia (Kochia scoparia) [5]; [20]) | Plant response rating, Foxtail, Giant [6, 15]
60: Plant response rating, Ryegrass, Italian [3, 15] | Plant response rating, Ragweed [4, 15] | Kochia plant response rating (kochia (Kochia scoparia) [8]; 31 g ai/ha) | Chickweed plant response rating ([9]; 16 g ai/ha)
0: Plant response rating, Wheat [1, 19] | Plant response rating, Wheat [1, 15] | Barnyardgrass plant response rating [2, 20] | Ryegrass, Italian plant response rating [3, 20] | Plant response rating, Ryegrass, Italian [3, 17] | Ragweed plant response rating [4, 20] | Plant response rating, Ragweed [4, 17] | Plant response rating, Foxtail, Giant [6, 19] | Plant response rating, Corn (corn (Zea mays); [19])
85: Plant response rating, Kochia (kochia (Kochia scoparia) [8]; 62 g ai/ha) | Chickweed plant response rating ([9]; 31 g ai/ha)
15: Oat, Wild plant response rating (wild oat (Avena fatua); 16 g ai/ha) | Barnyardgrass plant response rating [12]
100: Plant response rating, Kochia (kochia (Kochia scoparia) [5]; [15]) | Plant response rating, Pigweed [7, 19] | Plant response rating, Pigweed [7, 15] | Plant response rating, Pigweed [7, 17] | Plant response rating, Kochia (kochia (Kochia scoparia) [8]; 125 g ai/ha) | Plant response rating, Galium [11, 19] | Plant response rating, Galium [11, 15] | Sedge, Umbrella plant response rating [13]
25: Kochia plant response rating (kochia (Kochia scoparia) [8]; 16 g ai/ha)
40: Plant response rating, Foxtail, Giant [6, 17]
98: Plant response rating, Chickweed ([9]; 125 g ai/ha)
20: Plant response rating, Barnyardgrass [2, 17] | Plant response rating, Corn (corn (Zea mays); [15]) | Oat, Wild plant response rating (wild oat (Avena fatua); 31 g ai/ha) | Plant response rating, Oat, Wild (wild oat (Avena fatua); 62 g ai/ha) | Plant response rating, Oat, Wild (wild oat (Avena fatua); 125 g ai/ha)
30: Plant response rating, Barnyardgrass [2, 15] | Plant response rating, Ryegrass, Italian [3, 19] | Rice plant response rating (rice (Oryza sativa))
